Data: patent publication US20260042759A1, “INHIBITOR CONTAINING BICYCLIC DERIVATIVE, PREPARATION METHOD THEREFOR AND USE THEREOF” (SHANGHAI HANSOH BIOMEDICAL CO., LTD., priority 2019, published 2026)

Assays:
KDR kinase = biological target: T1, KDR kinase (Homo sapiens, UniProt P35968); assay: HTRF kinase assay, KDR; type: biochemical; details: for IC50: HTRF, ATP at Km; for Ratio (KDR/RET): KDR IC50 / RET IC50
T1 construct: purchased Carna 08-191
Text: • KDR kinase was purchased from Carna Company, and the article number was 08-191; • HTRF KinEASE-TK kit was purchased from Cisbio Company, and the article number was 62TK0PEC; • ATP was purchased from Thermofisher Company, and the article number was PV3227; • 384-well plate was purchased from PerkinElmer Company, and the article number was 6007290.
In this experiment, the homogeneous time-resolved fluorescence (HTRF) method was used for the detection of compounds on KDR kinase activity.

RET = biological target: T2, RET (Homo sapiens, UniProt P07949); assay: HTRF kinase assay, RET wild-type; type: biochemical; details: ATP at Km
T2 construct: purchased Carna 08-159
T2 sequence (P07949 29-1114): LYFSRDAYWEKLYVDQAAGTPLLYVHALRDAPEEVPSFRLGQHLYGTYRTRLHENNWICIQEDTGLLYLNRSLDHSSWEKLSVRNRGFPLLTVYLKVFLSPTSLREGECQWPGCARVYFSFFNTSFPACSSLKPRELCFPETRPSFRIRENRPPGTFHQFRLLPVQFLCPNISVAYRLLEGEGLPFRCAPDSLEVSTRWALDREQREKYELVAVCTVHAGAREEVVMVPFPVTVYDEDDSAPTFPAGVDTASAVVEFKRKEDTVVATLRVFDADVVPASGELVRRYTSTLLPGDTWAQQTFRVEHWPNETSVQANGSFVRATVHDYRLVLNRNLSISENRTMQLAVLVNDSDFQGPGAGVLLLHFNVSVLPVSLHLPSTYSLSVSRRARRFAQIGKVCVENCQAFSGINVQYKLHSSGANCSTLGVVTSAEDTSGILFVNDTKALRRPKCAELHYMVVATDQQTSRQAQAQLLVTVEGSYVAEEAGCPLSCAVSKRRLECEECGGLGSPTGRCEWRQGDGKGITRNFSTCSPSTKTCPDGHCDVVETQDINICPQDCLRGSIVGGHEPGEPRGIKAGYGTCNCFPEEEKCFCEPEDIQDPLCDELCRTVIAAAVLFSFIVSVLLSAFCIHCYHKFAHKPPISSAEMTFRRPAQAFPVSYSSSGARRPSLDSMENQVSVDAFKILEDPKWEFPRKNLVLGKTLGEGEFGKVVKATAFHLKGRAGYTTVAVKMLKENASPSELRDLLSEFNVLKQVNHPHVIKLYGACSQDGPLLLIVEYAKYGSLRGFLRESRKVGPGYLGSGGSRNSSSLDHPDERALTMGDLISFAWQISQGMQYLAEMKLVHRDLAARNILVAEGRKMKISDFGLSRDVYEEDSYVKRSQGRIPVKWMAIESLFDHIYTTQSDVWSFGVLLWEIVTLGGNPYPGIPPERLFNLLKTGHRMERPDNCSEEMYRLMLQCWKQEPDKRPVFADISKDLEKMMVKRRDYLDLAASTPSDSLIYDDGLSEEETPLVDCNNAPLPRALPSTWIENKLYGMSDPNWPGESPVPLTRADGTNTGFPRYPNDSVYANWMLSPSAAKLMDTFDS
Text: (§1) • RET enzyme was purchased from Carna Company, and the article number was 08-159; • RET M918T enzyme was purchased from Carna Company, and the article number was 08-508; • KIF5B-RET was purchased from SignalChem Company, the article number was R02-19FG-05; • CCDC6-RET was purchased from SignalChem Company, the article number was R02-19BG-05; • RET V804M enzyme was purchased from Thermofisher Company, and the article number was PV6223; • RET V804L enzyme was purchased from Thermofisher Company, and the article number was PV4397; • HTRF KinEASE-TK kit was purchased from Cisbio Company, and the article number was 62TK0PEC; • ATP was purchased from Thermofisher Company, and the article number was PV3227; • 384-well plate was purchased from PerkinElmer Company, and the article number was 6007290.
(§2) In this experiment, the homogeneous time-resolved fluorescence (HTRF) method was used for the detection of compounds on RET kinase activity.

[1] = tested on: TT cells (MTC, RET C634W); assay: TT cell proliferation (CellTiter-Glo); type: cell-based, human; details: Homo sapiens, TT, 72 h
Protocol: When TT cells were cultured to the appropriate fusion level, TT cells were collected, and the cells were adjusted to the appropriate cell concentration using complete medium, and the cell suspension was spread in a 96-well plate, 90 µL per well, and placed in a 37° C., 5% CO2 incubator overnight; and compound solutions of different concentrations were prepared using DMSO and culture medium; and a solvent control was set, the compound solution was added to a 96-well plate, 10 µL per well, at 37° C. in a 5% CO2 incubator for 72 hours; CellTiter-Glo solution was added thereto and the mixture was mixed well by shaking, incubated for 10 min in the dark, and read by BioTek Synergy H1 microplate reader.
The luminescence signal values were used to calculate the inhibition rate, the concentration and the inhibition rate were fitted to a nonlinear regression curve using Graphpad Prism software.

Ba/F3 KIF5B-RET cells = biological target: T3, Ba/F3 KIF5B-RET cells (Homo sapiens, UniProt P07949); assay: Ba/F3 KIF5B-RET cell proliferation (CellTiter-Glo); type: cell-based; details: 72 to 144 hours, read-out: Ba/F3 KIF5B-RET IC50
T3 construct: fused on or other part: P33176 (Kinesin-1 heavy chain)
T3 sequence (P07949 whole entry, change not shown, the tested form may be a part): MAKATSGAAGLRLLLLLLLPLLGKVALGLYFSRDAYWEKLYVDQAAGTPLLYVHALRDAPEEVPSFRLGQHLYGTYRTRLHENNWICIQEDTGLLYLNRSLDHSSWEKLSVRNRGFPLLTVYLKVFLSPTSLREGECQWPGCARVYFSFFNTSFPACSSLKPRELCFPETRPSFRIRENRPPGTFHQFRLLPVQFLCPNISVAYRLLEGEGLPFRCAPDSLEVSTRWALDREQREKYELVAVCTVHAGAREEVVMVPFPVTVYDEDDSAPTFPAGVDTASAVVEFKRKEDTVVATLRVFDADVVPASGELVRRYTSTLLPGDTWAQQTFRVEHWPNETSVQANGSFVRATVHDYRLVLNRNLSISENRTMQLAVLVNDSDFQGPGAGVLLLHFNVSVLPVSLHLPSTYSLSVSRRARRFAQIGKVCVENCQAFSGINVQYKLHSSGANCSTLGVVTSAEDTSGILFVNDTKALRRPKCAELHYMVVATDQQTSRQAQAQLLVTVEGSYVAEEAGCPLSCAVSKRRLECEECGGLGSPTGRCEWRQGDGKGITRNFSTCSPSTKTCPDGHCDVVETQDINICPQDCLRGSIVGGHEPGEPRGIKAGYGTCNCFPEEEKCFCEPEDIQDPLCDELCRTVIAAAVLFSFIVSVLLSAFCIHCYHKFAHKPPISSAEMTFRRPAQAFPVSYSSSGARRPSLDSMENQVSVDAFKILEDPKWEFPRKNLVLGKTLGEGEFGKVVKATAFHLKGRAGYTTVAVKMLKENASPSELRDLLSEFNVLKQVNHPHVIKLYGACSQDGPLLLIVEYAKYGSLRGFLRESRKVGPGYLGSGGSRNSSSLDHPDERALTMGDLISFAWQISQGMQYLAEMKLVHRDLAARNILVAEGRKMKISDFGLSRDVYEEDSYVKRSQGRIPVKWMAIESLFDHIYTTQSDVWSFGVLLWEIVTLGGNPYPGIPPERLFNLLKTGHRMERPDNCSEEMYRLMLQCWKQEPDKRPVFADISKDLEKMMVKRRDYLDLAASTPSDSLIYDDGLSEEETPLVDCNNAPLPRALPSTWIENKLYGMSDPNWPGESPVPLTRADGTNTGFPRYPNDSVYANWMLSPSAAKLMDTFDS
Protocol: When Ba/F3 KIF5B-RET cells were cultured to the appropriate cell density, cells were collected, and the cells were adjusted to the appropriate cell concentration using complete medium, and the cell suspension was spread in a 96-well plate, 90 μL per well, and placed in a 37° C., 5% CO2 incubator for overnight; compound solutions of different concentrations were prepared using DMSO and culture medium; a solvent control was set, and the compound solution was added to a 96-well plate with 10 μL per well at 37° C. in a 5% CO2 incubator for 72 to 144 hours; CellTiter-Glo solution was added thereto and mixed well by shaking, incubated for 10 min in the dark, and read by BioTek Synergy H1 microplate reader.
The luminescence signal values were used to calculate the inhibition rate, the concentrations and the inhibition rates were fitted to a nonlinear regression curve using Graphpad Prism software.

[2] = Balb/C mouse pharmacokinetics, oral; type: in vivo; details: male, mouse, po, Balb/C mice, p.o., 5 mg/kg, plasma
Protocol: The pharmacokinetic behavior of the following compound embodiments, administered orally at a dose of 5 mg/kg in plasma in mice, was studied using Balb/C mice as test animals.
Balb/C Mouse 6/embodiment, male, Shanghai Jiesijie Laboratory Animal Co., Ltd, Animal Production License No. (SCXK (Shanghai) 2013-0006 N0.311620400001794).
Balb/C mice, males; p.o. after overnight fasting, respectively, at a dose of 5 mg/kg, administered in a volume of 10 mL/kg.
0.5% CMC-Na(1% Tween80) was dissolved by ultrasound, and prepared into clear solution or uniform suspension.
Before and after administration, 0.1 mL of blood was collected from mice at 0, 0.5, 1, 2, 4, 6, 8 and 24 hours by orbital collection, placed in EDTA-K2 tubes, centrifuged at 6000 rpm at 4° C. for 6 min to separate plasma, and stored at −80° C.
40 μL of plasma sample was precipitated by adding 160 μL of acetonitrile, mixed and centrifuged at 3500×g for 5-20 min.
100 μL of the supernatant solution after treatment was taken to analyze the concentration of the test compound by LC/MS/MS.
The main pharmacokinetic parameters were calculated using WinNonlin 6.1 and the results of the mouse pharmacokinetic experiments were shown in Table 8 below.

RET M918T = biological target: T4, RET M918T (Homo sapiens, UniProt P07949, M918T); assay: HTRF kinase assay, RET M918T; type: biochemical; details: ATP at Km
T4 construct: purchased Carna 08-508
T4 sequence (P07949 29-1114 M918T): as the sequence (P07949 29-1114) above, with M890T counted along it
Text: as §1, §2

T1 sequence (P35968 20-1356): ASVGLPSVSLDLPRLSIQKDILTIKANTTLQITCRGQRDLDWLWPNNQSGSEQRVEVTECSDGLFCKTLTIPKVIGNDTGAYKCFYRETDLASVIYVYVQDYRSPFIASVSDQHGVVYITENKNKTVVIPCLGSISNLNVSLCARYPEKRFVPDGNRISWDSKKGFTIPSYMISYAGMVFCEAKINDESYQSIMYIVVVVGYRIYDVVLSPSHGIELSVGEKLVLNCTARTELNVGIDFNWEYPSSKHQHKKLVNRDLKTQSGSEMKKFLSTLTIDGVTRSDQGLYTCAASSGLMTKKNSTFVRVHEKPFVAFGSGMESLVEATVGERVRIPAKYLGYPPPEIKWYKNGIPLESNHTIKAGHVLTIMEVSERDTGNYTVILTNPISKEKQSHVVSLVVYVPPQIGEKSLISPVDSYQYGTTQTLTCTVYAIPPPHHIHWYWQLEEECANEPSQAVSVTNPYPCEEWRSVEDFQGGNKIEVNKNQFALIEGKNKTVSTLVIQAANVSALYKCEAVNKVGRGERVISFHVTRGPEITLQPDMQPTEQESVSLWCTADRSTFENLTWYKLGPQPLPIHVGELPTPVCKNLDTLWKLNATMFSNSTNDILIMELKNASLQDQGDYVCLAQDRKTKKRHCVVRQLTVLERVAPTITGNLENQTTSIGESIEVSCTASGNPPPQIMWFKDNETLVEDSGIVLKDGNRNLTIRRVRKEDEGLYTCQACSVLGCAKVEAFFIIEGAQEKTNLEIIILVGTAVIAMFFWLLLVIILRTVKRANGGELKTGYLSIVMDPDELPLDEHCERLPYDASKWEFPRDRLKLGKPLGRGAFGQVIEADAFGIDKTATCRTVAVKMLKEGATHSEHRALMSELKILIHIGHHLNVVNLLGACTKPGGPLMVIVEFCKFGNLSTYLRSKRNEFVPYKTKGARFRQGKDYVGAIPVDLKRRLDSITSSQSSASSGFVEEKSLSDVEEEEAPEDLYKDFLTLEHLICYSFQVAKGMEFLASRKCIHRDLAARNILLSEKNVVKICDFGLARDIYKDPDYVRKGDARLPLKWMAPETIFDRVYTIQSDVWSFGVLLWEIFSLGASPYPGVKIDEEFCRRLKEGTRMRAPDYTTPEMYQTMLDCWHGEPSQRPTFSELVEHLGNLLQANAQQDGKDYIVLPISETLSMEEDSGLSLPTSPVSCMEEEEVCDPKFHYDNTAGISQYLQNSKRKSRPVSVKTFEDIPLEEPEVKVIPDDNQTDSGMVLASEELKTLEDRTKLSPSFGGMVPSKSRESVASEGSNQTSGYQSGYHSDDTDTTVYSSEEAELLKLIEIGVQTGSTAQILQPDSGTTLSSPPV

Row | Compound | IC50 (KDR kinase) | Ratio (KDR/RET) (KDR kinase) | IC50 (RET) | IC50 [1] | GI50 (Ba/F3 KIF5B-RET cells) | MRT ([2]; read-out: Average residence time MRT) | Cmax ([2]; read-out: Blood concentration Cmax) | AUC(0-t) ([2]; read-out: Curve area AUC0-t) | AUC(0-inf) ([2]; read-out: Curve area AUC0-∞) | half-life ([2]; read-out: Half-life t1/2 (converted)) | Tmax ([2]; read-out: Peak time tmax) | IC50 (RET M918T)
1 | CC1(NC(=O)c2ncccc2Cl)CCN(c2ccc(-c3cc(C#CC4(O)COC4)cn4ncc(C#N)c34)cn2)CC1 [Embodiment 175, 3-Chloro-N-(1-(5-(3-cyano-6-((3-hydroxyoxetan-3-yl)ethynyl)pyrazolo[1,5-a]pyridin-4-yl)pyridin-2-yl)-4-methylpiperidin-4-yl)picolinamide] | 47 nM | 185 | 0.25 nM | 18.5 nM | 15.5 nM |  |  |  |  |  |  | 
2 | COc1ncc(CN2C3CC2CN(c2ccc(-c4cc(OC[C@H]5C[C@@](C)(O)C5)cn5ncc(C#N)c45)cn2)C3)cc1F [Embodiment 161, 4-(6-(6-((5-Fluoro-6-methoxypyridin-3-yl)methyl)-3,6-diazabicyclo[3.1.1]heptan-3-yl)pyridin-3-yl)-6-((cis-3-hydroxy-3-methylcyclobutyl)methoxy)pyrazolo[1,5-a]pyridine-3-carbonitrile] | 7.4 nM | 20 | 0.37 nM | 13.9 nM | 8.59 nM |  |  |  |  |  |  | 
3 | COc1ccc(CN2C3CC2CN(c2ccc(-c4cc(OCC5(C#N)CC5)cn5ncc(C#N)c45)cn2)C3)cn1 [Embodiment 106, 6-((1-Cyanocyclopropyl)methoxy)-4-(6-(6-((6-methoxypyridin-3-yl)methyl)-3,6-diazabicyclo[3.1.1]heptan-3-yl)pyridin-3-yl)pyrazolo[1,5-a]pyridine-3-carbonitrile] |  |  |  | 19 nM |  | 4.71 h | 3120 ng/mL | 18900 ng·h/mL | 18900 ng·h/mL | 2.66 h | 0.5 h | 0.47 nM
